Measured values published in patent US20250368633A1, “AZEPINE FUSED RING COMPOUND AS RIPK1 INHIBITOR AND USE THEREOF” (ARTIVILA BIOPHARMA, priority 2022, published 2025).

What was measured:
RIPK1 kinase = target: T1, RIPK1 kinase (Homo sapiens, UniProt Q13546); assay: In vitro RIPK1 kinase activity assay (ADP-Glo), inhibition by compounds at 1 μM; assay type: biochemical; conditions: compound 1 μM; ATP 10 μM; MBP substrate 100 μg/mL; read-out: RIPK1 kinase activity inhibition rate range
T1 construct: purchased Promega VA7593
T1 sequence (Q13546 1-671): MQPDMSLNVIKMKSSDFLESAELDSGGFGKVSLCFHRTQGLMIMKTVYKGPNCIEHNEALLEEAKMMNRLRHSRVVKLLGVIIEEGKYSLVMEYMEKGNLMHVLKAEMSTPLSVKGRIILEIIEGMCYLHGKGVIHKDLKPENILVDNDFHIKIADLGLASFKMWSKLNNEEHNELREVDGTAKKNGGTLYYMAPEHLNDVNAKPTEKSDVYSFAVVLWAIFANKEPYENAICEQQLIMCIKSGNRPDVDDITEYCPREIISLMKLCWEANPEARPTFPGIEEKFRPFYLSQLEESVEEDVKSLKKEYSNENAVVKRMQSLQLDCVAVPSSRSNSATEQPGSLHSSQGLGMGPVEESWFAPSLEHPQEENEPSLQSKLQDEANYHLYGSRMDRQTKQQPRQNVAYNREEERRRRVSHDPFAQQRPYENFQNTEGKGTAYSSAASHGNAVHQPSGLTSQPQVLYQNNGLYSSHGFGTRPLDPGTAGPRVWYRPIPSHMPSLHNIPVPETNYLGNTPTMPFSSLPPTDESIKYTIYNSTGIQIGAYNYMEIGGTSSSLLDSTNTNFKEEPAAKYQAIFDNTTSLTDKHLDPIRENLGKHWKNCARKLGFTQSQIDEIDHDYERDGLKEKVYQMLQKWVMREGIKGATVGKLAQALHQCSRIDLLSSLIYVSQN
In short: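 Read by ADP-Glo chemiluminescence as percent inhibition: RIPK1 kinase, 15-min room-temperature compound preincubation, then 1-h reaction with MBP (100 μg/mL final) and ATP (10 μM final). Enzyme level was set by titration.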

U937 cells = assay: Inhibition rate of compound (1 μM) on necroptosis of U937 cells (TSZ-induced, CellTiter-Glo); assay type: cell-based; conditions: TSZ (hTNF-α, SM-164, Z-VAD-FMK) 20 hours
In short: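 Percent inhibition comes from ATP luminescence (CellTiter-Glo), referenced to wells without TSZ and wells with TSZ alone. The compound was added to U937 cells 15 min ahead of a TNF-α/SM-164/Z-VAD-FMK mix, followed by 20 h culture at 37° C, 5% CO2.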

| SMILES | inhibition at 1 µM (RIPK1 kinase) | Inhibition rate range of compounds (1 μM) on U937 cell necroptosis (U937 cells) |
| --- | --- | --- |
| CN1C(=O)[C@@H](NC(=O)C(=O)NCCc2cccc(F)c2)COc2ccc(C#CCN3CCNC(=O)C3)cc21 [Example 123, (S)—N^1-(3-fluorophenethyl)-N^2-(5-methyl-4-oxo-7-(3-(3-oxopiperazin-1-yl)prop-1-yn-1-yl)-2,3,4,5-tetrahydrobenzo[b][1,4]oxazepin-3-yl)oxalamide] | 50 to 74% | B (B: 50-89%) |
| C[C@@H](NC(=O)C(=O)N[C@H]1COc2ccc(C#CCN3CC[C@@H](O)C3)cc2N(C)C1=O)c1ccccc1 [Example 128, N^1-((S)-7-(3-((R)-3-hydroxypyrrolidin-1-yl)prop-1-yn-1-yl)-5-methyl-4-oxo-2,3,4,5-tetrahydrobenzo[b][1,4]oxazepin-3-yl)-N^2-((R)-1-phenylethyl)oxalamide] | ≥ 75% | B (B: 50-89%) |
| C[C@@H](NC(=O)C(=O)N[C@H]1COc2ccc(C#CC3CCN(CC#N)CC3)cc2N(C)C1=O)c1ccccc1 [Example 137, N^1-((S)-7-((1-(cyanomethyl)piperidin-4-yl)ethynyl)-5-methyl-4-oxo-2,3,4,5-tetrahydrobenzo[b][1, 4]oxazepin-3-yl)-N^2-((R)-1-phenylethyl)oxalamide] | ≥ 75% | A (A: ≥90%) |
| C[C@@H](NC(=O)C(=O)N[C@H]1COc2ccc(C#CCN3CCC(O)CC3)cc2N(C)C1=O)c1ccccc1 [Example 138, N^1-((S)-7-(3-(4-hydroxypiperidin-1-yl)prop-1-yn-1-yl)-5-methyl-4-oxo-2,3,4,5-tetrahydrobenzo[b][1,4]oxazepin-3-yl)-N^2-((R)-1-phenylethyl)oxalamide] | ≥ 75% | A (A: ≥90%) |
| C[C@@H](NC(=O)C(=O)N[C@H]1COc2ccc(C#CCN3CCC(=O)CC3)cc2N(C)C1=O)c1ccccc1 [Example 139, N^1-((S)-5-methyl-4-oxo-7-(3-(4-oxopiperidin-1-yl)prop-1-yn-1-yl)-2,3,4,5-tetrahydrobenzo[b][1, 4]oxazepin-3-yl)-N^2-((R)-1-phenylethyl)oxalamide] | ≥ 75% | B (B: 50-89%) |
| C[C@@H](NC(=O)C(=O)N[C@H]1COc2ccc(C#CCN3C(=O)CCC3=O)cc2N(C)C1=O)c1ccccc1 [Example 144, N^1-((S)-7-(3-(2,5-dioxopyrrolidin-1-yl)prop-1-yn-1-yl)-5-methyl-4-oxo-2,3,4,5-tetrahydrobenzo[b][1,4]oxazepin-3-yl)-N^2-((R)-1-phenylethyl)oxalamide] | ≥ 75% | A (A: ≥90%) |
| C[C@@H](NC(=O)C(=O)N[C@H]1COc2ccc(C#CCN3CCNC(=O)C3)cc2N(C)C1=O)c1ccccc1 [Example 145, N^1-((S)-5-methyl-4-oxo-7-(3-(3-oxopiperazin-1-yl)prop-1-yn-1-yl)-2,3,4,5-tetrahydrobenzo[b][1, 4]oxazepin-3-yl)-N^2-((R)-1-phenylethyl)oxalamide] | ≥ 75% | A (A: ≥90%) |
| C[C@@H](NC(=O)C(=O)N[C@H]1COc2ccc(C#CC3CN(CC#N)C3)cc2N(C)C1=O)c1ccccc1 [Example 148, N^1-((S)-7-((1-(cyanomethyl)azetidin-3-yl)ethynyl)-5-methyl-4-oxo-2,3,4,5-tetrahydrobenzo[b][1, 4]oxazepin-3-yl)-N^2-((R)-1-phenylethyl)oxalamide] | ≥ 75% | A (A: ≥90%) |
| C[C@@H](CNC(=O)C(=O)N[C@H]1COc2ccc(C#CCCO)cc2N(C)C1=O)c1ccccc1 [Example 155, N^1-((S)-7-(4-hydroxybut-1-yn-1-yl)-5-methyl-4-oxo-2,3,4,5-tetrahydrobenzo[b][1,4]oxazepin-3-yl)-N^2-((R)-2-phenylpropyl)oxalamide] | ≥ 75% | A (A: ≥90%) |
| C[C@H](CNC(=O)C(=O)N[C@H]1COc2ccc(C#CCCO)cc2N(C)C1=O)c1ccccc1 [Example 156, N^1-((S)-7-(4-hydroxybut-1-yn-1-yl)-5-methyl-4-oxo-2,3,4,5-tetrahydrobenzo[b][1,4]oxazepin-3-yl)-N^2-((S)-2-phenylpropyl)oxalamide] | 50 to 74% | A (A: ≥90%) |
| C[C@@H](CNC(=O)C(=O)N[C@H]1COc2ccc(C#CCN3CCOCC3)cc2N(C)C1=O)c1ccccc1 [Example 159, N^1-((S)-5-methyl-7-(3-morpholinoprop-1-yn-1-yl)-4-oxo-2,3,4,5-tetrahydrobenzo[b][1,4]oxazepin-3-yl)-N^2-((R)-2-phenylpropyl)oxalamide] | ≥ 75% | A (A: ≥90%) |
| CN1C(=O)C(NC(=O)C(=O)NCCc2cccc(F)c2)CCc2ccc(C#CCCO)cc21 (stereo not shown) [Example 167, N^1-(3-fluorophenethyl)-N^2-(8-(4-hydroxybut-1-yn-1-yl)-1-methyl-2-oxo-2,3,4,5-tetrahydro-1H-benzo[b]azepin-3-yl)oxalamide] | ≥ 75% | A (A: ≥90%) |

Second part, led by results:

| inhibition at 1 µM (RIPK1 kinase) | SMILES | Inhibition rate range of compounds (1 μM) on U937 cell necroptosis (U937 cells) |
| --- | --- | --- |
| ≥ 75% | C[C@@H](NC(=O)C(=O)N[C@H]1COc2ccc(C#CCN3CC[C@H](O)C3)cc2N(C)C1=O)c1ccccc1 [Example 130, N^1-((S)-7-(3-((S)-3-hydroxypyrrolidin-1-yl)prop-1-yn-1-yl)-5-methyl-4-oxo-2,3,4,5-tetrahydrobenzo[b][1,4]oxazepin-3-yl)-N^2-((R)-1-phenylethyl)oxalamide] | A (A: ≥90%) |
| 50 to 74% | C[C@@H](NC(=O)C(=O)N[C@H]1COc2ccc(C#CC3(O)COC3)cc2N(C)C1=O)c1ccccc1 [Example 132, N^1-((S)-7-((3-hydroxyoxetan-3-yl)ethynyl)-5-methyl-4-oxo-2,3,4,5-tetrahydrobenzo[b][1,4]oxazepin-3-yl)-N^2-((R)-1-phenylethyl)oxalamide] | A (A: ≥90%) |
| ≥ 75% | C[C@@H](NC(=O)C(=O)N[C@H]1COc2ccc(C#CCN3CCOCC3)cc2N(C)C1=O)c1ccccc1 [Example 140, N^1-((S)-5-methyl-7-(3-morpholinoprop-1-yn-1-yl)-4-oxo-2,3,4,5-tetrahydrobenzo[b][1,4]oxazepin-3-yl)-N^2-((R)-1-phenylethyl)oxalamide] | A (A: ≥90%) |
| 50 to 74% | C[C@@H](NC(=O)C(=O)N[C@H]1COc2ccc(C#CCN(C)C)cc2N(C)C1=O)c1ccccc1 [Example 146, N^1-((S)-7-(3-(dimethylamino)prop-1-yn-1-yl)-5-methyl-4-oxo-2,3,4,5-tetrahydrobenzo[b][1,4]oxazepin-3-yl)-N^2-((R)-1-phenylethyl)oxalamide] | A (A: ≥90%) |
| ≥ 75% | C[C@@H](CNC(=O)C(=O)N[C@H]1COc2ccc(C#CC3(O)COC3)cc2N(C)C1=O)c1ccccc1 [Example 158, N^1-((S)-7-((3-hydroxyoxetan-3-yl)ethynyl)-5-methyl-4-oxo-2,3,4,5-tetrahydrobenzo[b][1,4]oxazepin-3-yl)-N^2-((R)-2-phenylpropyl)oxalamide] | A (A: ≥90%) |
